Like-named read-outs stand apart in the source and are kept apart here.
Assays:
[1] = tested on: mutant Huntington (HTT) protein; assay: HTT Mutant HTRF iPSC assay (mHTT protein lowering); format: cell-based; settings: human iPSC derived from a HTT patient with a poly-Q49 mutation
mHTT protein [2] = settings: HD patient cells; cited from earlier work
mHTT protein [3] = settings: HD mouse model; cited from earlier work
mHTT protein [4] = settings: blood samples from SMA Type I patients dosed orally; cited from earlier work

| SMILES | IC50 [1] | other results |
| --- | --- | --- |
| Cc1cn2cc(NC(=O)c3cc4ccc(N5CC6CCC(C5)N6C)nc4s3)nc(C)c2n1 [Compound 243, N-(2,8-dimethylimidazo[1,2-a]pyrazin-6-yl)-6-(8-methyl-3,8-diazabicyclo[3.2.1]octan-3-yl)thieno[2,3-b]pyridine-2-carboxamide] | < 100 nM |  |
| Cc1cn2cc(NC(=O)c3cc4ccc(N5C[C@H]6CCN[C@H]6C5)nc4s3)cc(F)c2n1 [Compound 245, N-(8-fluoro-2-methylimidazo[1,2-a]pyridin-6-yl)-6-((3aR,6aR)-hexahydropyrrolo[3,4-b]pyrrol-5(1H)-yl)thieno[2,3-b]pyridine-2-carboxamide] | < 100 nM |  |
| CN1CCC(c2ccc3nc(C(=O)Nc4cc(F)c5nn(C)cc5c4)sc3n2)CC1 [Compound 246, N-(7-fluoro-2-methyl-2H-indazol-5-yl)-5-(1-methylpiperidin-4-yl)thiazolo[5,4-b]pyridine-2-carboxamide] | 100 to 1000 nM |  |
| CCN1CCN(c2cnc3cc(C(=O)Nc4cc5cn(C)nc5cc4OC)sc3n2)CC1 [Compound 247, 3-(4-ethylpiperazin-1-yl)-N-(6-methoxy-2-methyl-2H-indazol-5-yl)thieno[2,3-b]pyrazine-6-carboxamide] | < 100 nM |  |
| COc1cc2nn(C)cc2cc1NC(=O)c1cc2ncc(N3CCC4(CN(C)C4)C3)nc2s1 [Compound 248, N-(6-methoxy-2-methyl-2H-indazol-5-yl)-3-(2-methyl-2,6-diazaspiro[3.4]octan-6-yl)thieno[2,3-b]pyrazine-6-carboxamide] | 100 to 1000 nM |  |
| COc1c(NC(=O)c2cc3ccc(C4CCN(C)CC4)nc3s2)cc2cn(C)nc2c1F [Compound 249, N-(7-fluoro-6-methoxy-2-methyl-2H-indazol-5-yl)-6-(1-methylpiperidin-4-yl)thieno[2,3-b]pyridine-2-carboxamide] | < 100 nM |  |
| Cc1cn2cc(NC(=O)c3cc4ccc(N5CC[C@@H](N(C)C)C5)nc4s3)nc(C(F)F)c2n1 [Compound 250, (R)-N-(8-(difluoromethyl)-2-methylimidazo[1,2-a]pyrazin-6-yl)-6-(3-(dimethylamino)pyrrolidin-1-yl)thieno[2,3-b]pyridine-2-carboxamide] | < 100 nM |  |
| CCN1CCN(c2ccc3cc(C(=O)Nc4cn5cc(C)nc5c(C(F)F)n4)sc3n2)CC1 [Compound 253, N-(8-(difluoromethyl)-2-methylimidazo[1,2-a]pyrazin-6-yl)-6-(4-ethylpiperazin-1-yl)thieno[2,3-b]pyridine-2-carboxamide] | < 100 nM |  |
| CCOc1cn2nc(C)cc2cc1NC(=O)c1cc2ccc(N3CC4(CCN(C)C4)C3)nc2s1 [Compound 256, N-(6-ethoxy-2-methylpyrazolo[1,5-a]pyridin-5-yl)-6-(6-methyl-2,6-diazaspiro[3.4]octan-2-yl)thieno[2,3-b]pyridine-2-carboxamide] | < 100 nM |  |
| Cc1cn2cc(NC(=O)c3cc4ncc(N5CCC6(CN(C)C6)C5)nc4s3)cc(F)c2n1 [Compound 257, N-(8-fluoro-2-methylimidazo[1,2-a]pyridin-6-yl)-3-(2-methyl-2,6-diazaspiro[3.4]octan-6-yl)thieno[2,3-b]pyrazine-6-carboxamide] | 100 to 1000 nM |  |
| Cc1cn2cc(NC(=O)c3cc4ncc(N5CC(C)(N)C5)nc4s3)cc(F)c2n1 [Compound 258, 3-(3-amino-3-methylazetidin-1-yl)-N-(8-fluoro-2-methylimidazo[1,2-a]pyridin-6-yl)thieno[2,3-b]pyrazine-6-carboxamide] | < 100 nM |  |
| CCN1CCN(c2ccc3oc(C(=O)Nc4cc5cc(C)nn5cc4OC)cc3n2)CC1 [Compound 259, 5-(4-ethylpiperazin-1-yl)-N-(6-methoxy-2-methylpyrazolo[1,5-a]pyridin-5-yl)furo[3,2-b]pyridine-2-carboxamide] | 100 to 1000 nM |  |
| COc1nc(NC(=O)c2cc3nc(C4CCN(C)CC4)ccc3o2)cn2cc(C)nc12 [Compound 262, N-(8-methoxy-2-methylimidazo[1,2-a]pyrazin-6-yl)-5-(1-methylpiperidin-4-yl)furo[3,2-b]pyridine-2-carboxamide] | 100 to 1000 nM |  |
| COc1cc2nn(C)cc2cc1NC(=O)c1cc2nc(N3CCN(C)CC3)ccc2o1 [Compound 263, N-(6-methoxy-2-methyl-2H-indazol-5-yl)-5-(4-methylpiperazin-1-yl)furo[3,2-b]pyridine-2-carboxamide] | < 100 nM |  |
| COc1cc(NC(=O)c2nc3ccc(N4CC5(CCN(C)C5)C4)nc3s2)cn2cc(C)nc12 [Compound 267, N-(8-methoxy-2-methylimidazo[1,2-a]pyridin-6-yl)-5-(6-methyl-2,6-diazaspiro[3.4]octan-2-yl)thiazolo[5,4-b]pyridine-2-carboxamide] | < 100 nM |  |
| Cc1cn2cc(NC(=O)c3cc4ncc(N5C[C@@H]6CN(C)C[C@@H]65)nc4s3)cc(F)c2n1 [Compound 268, N-(8-fluoro-2-methyl-imidazo[1,2-a]pyridin-6-yl)-3-[(1S,5R)-3-methyl-3,6-diazabicyclo[3.2.0]heptan-6-yl]thieno[2,3-b]pyrazine-6-carboxamide] | 100 to 1000 nM |  |
| COc1cc2nn(C)cc2cc1NC(=O)c1cc2nc(C3CCN(C)CC3)ccc2o1 [Compound 269, N-(6-methoxy-2-methyl-2H-indazol-5-yl)-5-(1-methylpiperidin-4-yl)furo[3,2-b]pyridine-2-carboxamide] | 100 to 1000 nM |  |
| CC1(C)CC(Oc2ccc(-c3ccc(-c4cn[nH]c4)cc3O)nn2)CC(C)(C)N1 [branaplam] |  | mHTT protein levels (mHTT protein [2]): lowers mHTT protein levels; mHTT protein levels (mHTT protein [3]): lowers mHTT protein levels; mHTT protein levels (mHTT protein [4]): lowers mHTT protein levels |
